According to PMC5510229, “BCAT1 controls metabolic reprogramming in activated human macrophages and is associated with inflammatory diseases” (Nature Communications, 2017):

Tested on: mouse peritoneal macrophages
Test: Mouse i.p. injection of LPS and ERG240, peritoneal macrophages analysed
Type: in vivo, C57BL/6 mice
Experimental: Figure 4 Bcat1 inhibition blocks itaconate production in vivo and polarizes peritoneal macrophages. Mouse peritoneal macrophages from vehicle (saline), LPS-injected (1.5 mg kg^−1) or LPS+ERG240 (500 mg kg^−1)–injected mice were isolated and pooled 24 h following i.p. injection (n=6 mice per group). Irg1 protein (a), mRNA (b) levels, as well as itaconate measurements by GC/MS (c) are shown. […] Peritoneal macrophages were collected 24 h following the LPS injection. n=3 mice/group. (d) Protein–protein interaction (PPI) network in 100 top (97 annotated) differentially expressed genes between LPS and LPS+ERG240 treated mouse peritoneal macrophages illustrated by STRING (high confidence score=0.7). The IFN-inducible GTPase cluster is shown within a dashed circle. (e) Distribution of the fold changes and the FDR-adjusted P values (−log10 (FDR)) for the comparison between LPS and LPS+ERG240 treated macrophages. The IFN- inducible GTPase genes, M1-like, M2-like and extracellular matrix transcripts are shown in blue. (f) Fragments per kilobase of transcript per Million mapped reads (FPKM) values for Nos2, Il6 are shown in vehicle, LPS and LPS+ERG240-treated peritoneal macrophages. (g) FPKM values for Ifit1, Ifit2, Ifit3, Gbp1, Gbp2, Gbp4, Gbp7, Mrc1, Klf4, Cd36, Fn1, Mmp9, Gsn and Spp1. FPKM=1 is shown as a dashed line to denote minimal expression levels. All transcripts analysed by RNA-seq (f,g) show significant FPKM upon ERG240 treatment when compared to LPS group (FDR<10^−73). Error bars are s.e.m. Significance was tested using one-way ANOVA. *P<0.05 by ANOVA.
The procedure was performed by Washington Biotechnology Inc. (Baltimore, MD). […] Same dose of ERG240 was administered a second time, 8 h following the first injection of LPS. Peritoneal macrophages were harvested 24 h after the LPS injection and results from three groups (vehicle, LPS only, LPS+ERG240; n=6 mice in each group) were analysed in terms of IRG1 and itaconate level measurements.
For itaconate, cells pellets containing 1.5 × 10^6 hMDMs were quenched with 400 μl of methanol, previously chilled at −20 °C. After addition of 400 μl of cold (4 °C) ultrapure water, cell pellets were vortexed briefly and then allowed to stand for 10 min on ice. Following addition of 400 μl of GC/MS grade dichloromethane, previously chilled at −20 °C, samples were vortexed again and centrifuged at 14,000g for 10 min at 4 °C. The aqueous layer of the samples was collected and lyophilized. Dried materials were dissolved in 40 μl of MOX solution, which is prepared by allowing 20 mg of methoxamine HCl (Sigma Aldrich) to dissolve in 500 μl pyridine for 30 min at room temperature. Metabolites dissolved in MOX were incubated at 45 °C for 60 min, derivatized by adding 60 μl of N-methyl-N-(trimethylsilyl) trifluoroacetamide (MSFTA, Mecherey-Nagel) and incubated at 45 °C for 30 min. After a brief centrifugation, derivatized metabolites were transferred into clean GC/MS vials and analysed for the presence of itaconic acid (itaconate) using a 7890A GC System (Agilent Technologies) equipped with an Agilent J&W DB-5ms column (30 m, 0.25 mm, 0.25 μm), connected to an 5975C Triple-Axis MS Detector (Agilent Technologies) and outfitted with an autosampler. The MS source was held at 230 °C and the quadrupole at 150 °C. The GC oven temperature was held at 50 °C for 5 min, increased to 240 °C at a rate of 10 °C min^−1, held at 240 °C for 5 min and increased to 300 °C at a rate of 10 °C min^−1. A volume of 1 μl was injected in the system in a 1:3 split mode. The amount of itaconate present in the sample was determined after peak integration. For citrate, the frozen cell pellets were re-suspended in ice-cold ethanol-phosphate buffer. Cells were lysed by three freeze-thaw cycles and sonication. Samples were centrifuged and the supernatant was used for further analysis. […]

[1] = LPS 1.5 mg kg^−1 + ERG240 500 mg kg^−1 i.p., 24 h
[2] = LPS+ERG240 vs LPS, peritoneal macrophages, 24 h

CC(=O)C(C)CCC(=O)O (stereo not drawn) [ERG240]
itaconate in peritoneal macrophages, sequential treatment (ERG240 administered 3 h after the first LPS injection, collected 24 h): equally decreased | Il6, Gbp4 expression levels, sequential treatment (ERG240 administered following 3 hours of LPS, qRT-PCR): inhibitory effect | Irg1 mRNA and protein levels in peritoneal macrophages [1]: reduction | itaconate in peritoneal macrophages [1]: significant decrease | IFN-inducible GTPase signature genes and M1-like markers (Nos2, Il6), RNA-seq [2]: down-regulated | M2-like and extracellular matrix transcripts, RNA-seq [2]: up-regulated
